The experiment has as its system human dermal fibroblasts (HDFs). The experiment is described as follows: UCP1 mRNA response of induced cells to Isoproterenol or FSK stimulation (Example 3). The format is cell-based. Particulars: cells cultured 14 days in induction medium with D4476 in addition to T3 and Rosiglitazone; FIG. 3. As to the method:
10 μM Isoproterenol or FSK was added to these cells as described in the Figure. As a control, a group free of the addition was also prepared. After 5 hr, the culture medium was removed from each well by suction, the cells were washed with PBS(−) and total RNA was extracted from the cells with ISOGEN II. qRT-PCR was performed in the same manner as in Example 2. The mRNA level of UCP1 gene was quantified as a ratio to […] gene mRNA and calculated with the value of fibroblast cultured in the normal medium as 1.

Turning to `NC(=O)c1ccc(-c2nc(-c3ccc4c(c3)OCCO4)c(-c3ccccn3)[nH]2)cc1` [D4476, 4-[4-(2,3-dihydro-1,4-benzodioxin-6-yl)-5-(2-pyridlnyl-)1H-imidazol-2-yl]-benzamide], the “responsiveness of induced cells to Isoproterenol or FSK stimuli” value was “brown adipocyte-like responsiveness”.

The values above are taken from patent US20240084258A1, “METHOD FOR PREPARING BROWN ADIPOCYTE” (KYOTO PREFECTURAL PUBLIC UNIVERSITY CORPORATION, priority 2015, published 2024).
